According to patent publication US12590083B2, “Inhibitors of spinster homolog 2 (SPNS2) for use in therapy” (University of Virginia Patent Foundation, priority 2019, dated 2026):
Where a name gives a salt, the structure may show the parent alone.

Target: T1, human SPNS2 (Homo sapiens, UniProt Q8IVW8)
T1 construct: expressed in transfected cells; host or cells: Saccharomyces cerevisiae strain with forced expression of a mammalian SphK and human SPNS2
T1 sequence (Q8IVW8 1-549): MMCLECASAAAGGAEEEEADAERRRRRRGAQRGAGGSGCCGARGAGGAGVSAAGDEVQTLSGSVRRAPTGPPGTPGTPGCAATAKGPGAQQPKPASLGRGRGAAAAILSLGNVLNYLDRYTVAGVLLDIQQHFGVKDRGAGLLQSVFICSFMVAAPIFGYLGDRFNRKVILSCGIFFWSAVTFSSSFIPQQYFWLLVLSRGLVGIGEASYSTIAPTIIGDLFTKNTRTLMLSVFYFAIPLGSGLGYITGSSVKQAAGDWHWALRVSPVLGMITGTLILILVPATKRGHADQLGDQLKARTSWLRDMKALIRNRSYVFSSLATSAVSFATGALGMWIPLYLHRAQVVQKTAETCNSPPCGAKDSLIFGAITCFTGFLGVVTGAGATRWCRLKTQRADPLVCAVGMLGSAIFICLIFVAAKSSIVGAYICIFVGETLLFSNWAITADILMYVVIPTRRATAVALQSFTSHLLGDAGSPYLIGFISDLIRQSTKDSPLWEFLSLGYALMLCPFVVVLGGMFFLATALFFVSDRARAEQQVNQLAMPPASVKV
Experiment: S1P transporter assay: growth of S. cerevisiae strain with forced expression of a mammalian SphK and human SPNS2
Type: cell-based
Conditions: in vitro inhibition of SPNS2; growth of S. cerevisiae strain expressing mammalian SphK and human SPNS2; compounds as their pharmaceutical salts
Description: Transporter assays are vectorial and, therefore, require measurement of the transported analyte in different compartments. The assay of S1P transporters is problematic because S1P is exported, but not imported, by SPNS2, which obviates measuring uptake of mass- or radio-labeled S1P into transporter-expressing cells.
To assay for SPNS2 inhibitor hits, we took advantage of the growth inhibitory effects of excessive levels of phosphorylated Long Chain Base (phospho-LCB) levels on the budding yeast, S. cerevisiae (Kharel Y, et al. Saccharomyces cerevisiae as a platform for assessing sphingolipid lipid kinase inhibitors. PLoS One 13, e0192179 (2018) PMC5908134). Yeast lack the desaturase that converts dihydroceramide to ceramide and, therefore, have neither sphingosine nor S1P. Rather, yeast have the reduced form, dihydrosphingosine, and the 4-hydroxyl analog, phytosphingosine and their respective phosphates. Like all eukaryotes, the yeast synthesizes (via LCB kinases (SphKs)) and degrades (via phospho-LCB lyase and phosphatase) phospho-LCBs, (dhS1P, phytoS1P). Yeast lack phospho-LCB transporters such as SPNS2, which are found only in vertebrates. To assess inhibition of SPNS2 in vitro, we used a strain of S. cerevisiae wherein expression of a mammalian SphK and human SPNS2 were forced. SPNS2 inhibitors decrease the growth of this strain. Table 2 below presents in vitro inhibition data against SPNS2 for exemplary compounds, presented here as their pharmaceutical salts, of the disclosure (A≤2 μM, B>2 μM).

SMILES | IC50 [nM]
Fc1cc(Nc2ccc(-c3noc([C@@H]4CCCNC4)n3)cn2)ccc1OC(F)(F)F [Compound 13c, (R)—N-(3-fluoro-4-(trifluoromethoxy)phenyl)-5-(5-(piperidin-3-yl)-1,2,4-oxadiazol-3-yl)pyridin-2-amine hydrochloride] | > 2000
c1cc(N2CCOCC2)ncc1-c1noc([C@@H]2CCNC2)n1 [Compound 13d, (R)-4-(5-(5-(pyrrolidin-3-yl)-1,2,4-oxadiazol-3-yl)pyridin-2-yl)morpholine hydrochloride] | > 2000
Clc1ccccc1Nc1ccc(-c2noc([C@@H]3CCNC3)n2)cn1 [Compound 13e, (R)—N-(2-chlorophenyl)-5-(5-(pyrrolidin-3-yl)-1,2,4-oxadiazol-3-yl)pyridin-2-amine hydrochloride] | > 2000
Brc1ccc(Br)c(Nc2ccc(-c3noc([C@@H]4CCNC4)n3)cn2)c1 [Compound 13f, (R)—N-(2,5-dibromophenyl)-5-(5-(pyrrolidin-3-yl)-1,2,4-oxadiazol-3-yl)pyridin-2-amine hydrochloride] | > 2000
CC(C)(C)c1cccc(Nc2ccc(-c3noc([C@@H]4CCNC4)n3)cn2)c1 [Compound 13g, (R)—N-(3-(tert-butyl)phenyl)-5-(5-(pyrrolidin-3-yl)-1,2,4-oxadiazol-3-yl)pyridin-2-amine hydrochloride] | > 2000
CCCCCCCCCCc1ccc(Nc2ccc(-c3noc([C@@H]4CCNC4)n3)cn2)cc1 [Compound 13h, (R)—N-(4-decylphenyl)-5-(5-(pyrrolidin-3-yl)-1,2,4-oxadiazol-3-yl)pyridin-2-amine hydrochloride] | > 2000
CCCCc1ccc(Nc2ccc(-c3noc([C@@H]4CCNC4)n3)cn2)cc1 [Compound 13i, (R)—N-(4-butylphenyl)-5-(5-(pyrrolidin-3-yl)-1,2,4-oxadiazol-3-yl)pyridin-2-amine hydrochloride] | > 2000
c1ccc(CCCOc2ccc(-c3noc(C4CNC4)n3)cc2)cc1 [Compound 13j, 5-(azetidin-3-yl)-3-(4-(3-phenylpropoxy)phenyl)-1,2,4-oxadiazole hydrochloride] | > 2000
N=C(N)N1CC[C@@H](c2nc(-c3ccc(N4CCCCC4)nc3)no2)C1 [Compound 15a, (R)-3-(3-(6-(piperidin-1-yl)pyridin-3-yl)-1,2,4-oxadiazol-5-yl)pyrrolidine-1-carboximidamide hydrochloride] | > 2000
CCCCCCCCNc1ccc(-c2noc([C@@H]3CCN(C(=N)N)C3)n2)cn1 [Compound 15b, (R)-3-(3-(6-(octylamino)pyridin-3-yl)-1,2,4-oxadiazol-5-yl)pyrrolidine-1-carboximidamide hydrochloride] | > 2000
N=C(N)N1CCC[C@@H](c2nc(-c3ccc(Nc4ccc(OC(F)(F)F)c(F)c4)nc3)no2)C1 [Compound 15c, (R)-3-(3-(6-((3-fluoro-4-(trifluoromethoxy)phenyl)amino)pyridin-3-yl)-1,2,4-oxadiazol-5-yl)piperidine-1-carboximidamide hydrochloride] | > 2000
N=C(N)N1CC[C@@H](c2nc(-c3ccc(N4CCOCC4)nc3)no2)C1 [Compound 15d, (R)-3-(3-(6-morpholinopyridin-3-yl)-1,2,4-oxadiazol-5-yl)pyrrolidine-1-carboximidamide hydrochloride] | > 2000
N=C(N)N1CC[C@@H](c2nc(-c3ccc(Nc4ccccc4Cl)nc3)no2)C1 [Compound 15e, (R)-3-(3-(6-((2-chlorophenyl)amino)pyridin-3-yl)-1,2,4-oxadiazol-5-yl)pyrrolidine-1-carboximidamide hydrochloride] | > 2000
N=C(N)N1CC[C@@H](c2nc(-c3ccc(Nc4cc(Br)ccc4Br)nc3)no2)C1 [Compound 15f, (R)-3-(3-(6-((2,5-dibromophenyl)amino)pyridin-3-yl)-1,2,4-oxadiazol-5-yl)pyrrolidine-1-carboximidamide hydrochloride] | > 2000
CC(C)(C)c1cccc(Nc2ccc(-c3noc([C@@H]4CCN(C(=N)N)C4)n3)cn2)c1 [Compound 15g, (R)-3-(3-(6-((3-(tert-butyl)phenyl)amino)pyridin-3-yl)-1,2,4-oxadiazol-5-yl)pyrrolidine-1-carboximidamide hydrochloride] | > 2000
CCCCCCCCCCc1ccc(Nc2ccc(-c3noc([C@@H]4CCN(C(=N)N)C4)n3)cn2)cc1 [Compound 15h, (R)-3-(3-(6-((4-decylphenyl)amino)pyridin-3-yl)-1,2,4-oxadiazol-5-yl)pyrrolidine-1-carboximidamide hydrochloride] | ≤ 2000
CCCCc1ccc(Nc2ccc(-c3noc([C@@H]4CCN(C(=N)N)C4)n3)cn2)cc1 [Compound 15i, (R)-3-(3-(6-((4-butylphenyl)amino)pyridin-3-yl)-1,2,4-oxadiazol-5-yl)pyrrolidine-1-carboximidamide hydrochloride] | > 2000
N=C(N)N1CC(c2nc(-c3ccc(OCCCc4ccccc4)cc3)no2)C1 [Compound 15j, 3-(3-(4-(3-phenylpropoxy)phenyl)-1,2,4-oxadiazol-5-yl)azetidine-1-carboximidamide hydrochloride] | > 2000
CCCCCCCOc1ccc(-c2noc([C@@H]3CCCNC3)n2)cc1C(F)(F)F [Compound 21c, (R)-3-(4-(heptyloxy)-3-(trifluoromethyl)phenyl)-5-(piperidin-3-yl)-1,2,4-oxadiazole hydrochloride] | > 2000
CCCCCCCCOc1ccc(-c2noc([C@@H]3CCCNC3)n2)cc1C(F)(F)F [Compound 21d, (R)-3-(4-(octyloxy)-3-(trifluoromethyl)phenyl)-5-(piperidin-3-yl)-1,2,4-oxadiazole hydrochloride] | > 2000
CCCCCCCCCCOc1ccc(-c2noc([C@@H]3CCCNC3)n2)cc1C(F)(F)F [Compound 21f, (R)-3-(4-(decyloxy)-3-(trifluoromethyl)phenyl)-5-(piperidin-3-yl)-1,2,4-oxadiazole hydrochloride] | > 2000
FC(F)(F)c1cc(-c2noc([C@@H]3CCCNC3)n2)ccc1OCCCc1ccccc1 [Compound 21j, (R)-3-(4-(3-phenylpropoxy)-3-(trifluoromethyl)phenyl)-5-(piperidin-3-yl)-1,2,4-oxadiazole hydrochloride] | > 2000
CCCCCCCCOc1ccc(-c2noc(C3CN(C(=N)N)C3)n2)cc1C(F)(F)F [Compound 23a, 3-(3-(4-(octyloxy)-3-(trifluoromethyl)phenyl)-1,2,4-oxadiazol-5-yl)azetidine-1-carboximidamide hydrochloride] | ≤ 2000
CCCCCCCCCOc1ccc(-c2noc(C3CN(C(=N)N)C3)n2)cc1C(F)(F)F [Compound 23b, 3-(3-(4-(nonyloxy)-3-(trifluoromethyl)phenyl)-1,2,4-oxadiazol-5-yl)azetidine-1-carboximidamide hydrochloride] | ≤ 2000
CCCCCCCOc1ccc(-c2noc([C@@H]3CCCN(C(=N)N)C3)n2)cc1C(F)(F)F [Compound 23c, (R)-3-(3-(4-(heptyloxy)-3-(trifluoromethyl)phenyl)-1,2,4-oxadiazol-5-yl)piperidine-1-carboximidamide hydrochloride] | ≤ 2000
CCCCCCCCOc1ccc(-c2noc([C@@H]3CCCN(C(=N)N)C3)n2)cc1C(F)(F)F [Compound 23d, (R)-3-(3-(4-(octyloxy)-3-(trifluoromethyl)phenyl)-1,2,4-oxadiazol-5-yl)piperidine-1-carboximidamide hydrochloride] | > 2000
